Molecules are shown by their SMILES.

In one experiment the target is T1, human FPRL2 (Homo sapiens, UniProt P25089).
T1 construct: expressed in transfected cells; host or cells: HEK293 (HEK293-hFPRL2-Gα16)
T1 sequence (P25089 1-353): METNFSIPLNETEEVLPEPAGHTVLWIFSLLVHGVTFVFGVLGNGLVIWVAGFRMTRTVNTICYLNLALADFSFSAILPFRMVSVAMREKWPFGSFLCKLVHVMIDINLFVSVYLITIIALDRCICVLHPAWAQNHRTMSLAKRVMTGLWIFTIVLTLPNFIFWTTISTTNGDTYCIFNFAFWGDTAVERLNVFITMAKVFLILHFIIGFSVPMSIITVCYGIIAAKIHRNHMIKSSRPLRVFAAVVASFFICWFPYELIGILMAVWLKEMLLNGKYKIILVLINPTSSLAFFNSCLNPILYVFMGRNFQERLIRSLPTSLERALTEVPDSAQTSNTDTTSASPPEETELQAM
Nature of the experiment: Intracellular calcium measurements (FLIPR), agonistic activity in HEK293-hFPRL2-Gα16 cells. Type of experiment: cell-based. The conditions noted are these: Fluo-4 calcium FLIPR, normalized to GLY14-Humanin 100 nM. The method in brief:
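Peak values after baseline subtraction are expressed relative to 100 nM Gly14-Humanin; compounds diluted in assay buffer from 10 mM DMSO stocks.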
(Calcium flux is commonly read through the fluorescence of an indicator in the cells.)

Another experiment has as its target T2, human ALX receptor (Homo sapiens, UniProt P25090).
T2 construct: expressed in transfected cells; host or cells: HEK293 (HEK293-hALXR-Gα16)
T2 sequence (P25090 1-351): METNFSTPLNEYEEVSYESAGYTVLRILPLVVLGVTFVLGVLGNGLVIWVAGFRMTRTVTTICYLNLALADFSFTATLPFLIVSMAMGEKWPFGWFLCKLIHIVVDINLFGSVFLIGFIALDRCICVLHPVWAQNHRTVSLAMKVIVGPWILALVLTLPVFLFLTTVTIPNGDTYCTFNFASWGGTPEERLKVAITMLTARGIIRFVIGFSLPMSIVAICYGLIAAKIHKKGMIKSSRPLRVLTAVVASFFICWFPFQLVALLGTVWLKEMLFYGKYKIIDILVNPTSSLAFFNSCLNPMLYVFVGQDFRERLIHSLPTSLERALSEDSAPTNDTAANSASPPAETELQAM
The experiment can be described thus: Intracellular calcium measurements (FLIPR), agonistic activity in HEK293-hALXR-Gα16 cells. It counts as cell-based. The conditions noted are these: Fluo-4 calcium FLIPR, normalized to WKYMVm 10 nM. The method in brief: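 HEK293 cells expressing hALXR and Gα16 were loaded with 1 μM Fluo-4 AM and 20 mM HEPES for 60 min at 37°C, then exposed to serially diluted compound. FLIPR fluorescence was read at ex 488/em 540 nm. Baseline-subtracted peak responses were normalized to 10 nM WKYMVm.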

Broadly, the EC50 is the midpoint of the concentration-response curve. Take `CC(C)C(=O)NC[C@H]1[C@H](C(=O)Nc2ccc(Br)cc2)[C@@H]2C=C[C@H]1C21CC1` (racemic) [Example 172, (5R*)—N^5-(4-Bromo-phenyl)-(6R*)-6-[(isobutyrylamino)-methyl]-(4S*,7R*)-[4,7-ethenylene-spiro[2.4]heptane]-5-carboxamide]: the figures for the EC50 on human FPRL2 and on human ALX receptor were 4610 nM and 125 nM, respectively.

As to `CCN1CCC(C(=O)NC[C@H]2[C@H](C(=O)Nc3ccc(Br)cc3)[C@@H]3C=C[C@H]2C32CC2)CC1` (racemic) [Example 173, (5R*)—N^5-(4-Bromo-phenyl)-(6R*)-6-{[(N-ethyl-piperidine-4-carbonyl)-amino]-methyl}-(4S*,7R*)-[4,7-ethenylene-spiro[2.4]heptane]-5-carboxamide], the EC50 was determined as 1820 nM at human FPRL2 and 131 nM on human ALX receptor.

Consider `O=C(CCc1cccnc1)NC[C@H]1[C@H](C(=O)Nc2ccc(Br)cc2)[C@@H]2C=C[C@H]1C21CC1` (racemic) [Example 174, (5R*)—N^5-(4-Bromo-phenyl)-(6R*)-6-[(3-pyridin-3-yl-propionylamino)-methyl]-(4S*,7R*)-[4,7-ethenylene-spiro[2.4]heptane]-5-carboxamide], for which the values for the half-maximal effective concentration (EC50) at human FPRL2 and at human ALX receptor were 4810 nM and 136 nM, respectively.

Consider `COCCC(=O)N(C)C[C@H]1[C@H](C(=O)Nc2ccc(Br)cc2)[C@@H]2C=C[C@H]1C21CC1` (racemic) [Example 175, (5R*)—N^5-(4-Bromo-phenyl)-(6R*)-6-{[N-(3-methoxy-propionyl)-N-methyl-amino]-methyl}-(4S*,7R*)-[4,7-ethenylene-spiro[2.4]heptane]-5-carboxamide], for which the values for the half-maximal effective concentration (EC50) at human FPRL2 and at human ALX receptor were 7210 nM and 155 nM, respectively.

Turning to `O=C(NC[C@H]1[C@H](C(=O)Nc2ccc(Br)cc2)[C@@H]2C=C[C@H]1C21CC1)c1cccc(F)c1Cl` (racemic) [Example 176, (5R*)—N^5-(4-Bromo-phenyl)-(6R*)-6-{[(2-chloro-3-fluoro-phenyl-carbonyl)-amino]-methyl}-(4S*,7R*)-[4,7-ethenylene-spiro[2.4]heptane]-5-carboxamide], the concentration for a half-maximal effect (EC50) at human FPRL2 is 2230 nM; on human ALX receptor, 158 nM.

As for `O=C(CCCN1CCCC1)NC[C@H]1[C@H](C(=O)Nc2ccc(Br)cc2)[C@@H]2C=C[C@H]1C21CC1` (racemic) [Example 177, (5R*)—N^5-(4-Bromo-phenyl)-(6R*)-6-[(4-pyrrolidin-1-yl-butanoylamino)-methyl]-(4S*,7R*)-[4,7-ethenylene-spiro[2.4]heptane]-5-carboxamide], the values for the EC50 at human FPRL2 and on human ALX receptor were 446 nM and 160 nM, respectively.

In the case of `Cc1cc(C(=O)NC[C@H]2[C@H](C(=O)Nc3ccc(Br)cc3)[C@@H]3C=C[C@H]2C32CC2)nn1C` (racemic) [Example 178, (5R*)—N^5-(4-Bromo-phenyl)-(6R*)-6-{[(1,5-dimethyl-1H-pyrazole-3-carbonyl)-amino]-methyl}-(4S*,7R*)-[4,7-ethenylene-spiro[2.4]heptane]-5-carboxamide], the EC50 at human FPRL2 stood at 4070 nM; at human ALX receptor it was 115 nM.

Consider `O=C(NC[C@H]1[C@H](C(=O)Nc2ccc(Br)cc2)[C@@H]2C=C[C@H]1C21CC1)C1CCCC1` (racemic) [Example 179, (5R*)—N^5-(4-Bromo-phenyl)-(6R*)-6-{[(cyclopentyl-carbonyl)-amino]-methyl}-(4S*,7R*)-[4,7-ethenylene-spiro[2.4]heptane]-5-carboxamide], for which the concentration for a half-maximal effect (EC50) came to 1380 nM on human FPRL2 and 200 nM on human ALX receptor.

For the compound `Cc1nc(CC(=O)NC[C@H]2[C@H](C(=O)Nc3ccc(Br)cc3)[C@@H]3C=C[C@H]2C32CC2)cs1` (racemic) [Example 180, (5R*)—N^5-(4-Bromo-phenyl)-(6R*)-6-[(2-(2-methyl-thiazol-4-yl)-acetylamino)-methyl]-(4S*,7R*)-[4,7-ethenylene-spiro[2.4]heptane]-5-carboxamide], the EC50 is 888 nM on human FPRL2 and 252 nM on human ALX receptor.

For the compound `CN(C)CC(=O)NC[C@H]1[C@H](C(=O)Nc2ccc(Br)cc2)[C@@H]2C=C[C@H]1C21CC1` (racemic) [Example 181, (5R*)—N^5-(4-Bromo-phenyl)-(6R*)-6-[(2-(N,N-dimethyl-amino)-acetylamino)-methyl]-(4S*,7R*)-[4,7-ethenylene-spiro[2.4]heptane]-5-carboxamide], the figures for the EC50 at human FPRL2 and at human ALX receptor were 2050 nM and 265 nM, respectively.

For the compound `CN(C[C@H]1[C@H](C(=O)Nc2ccc(Br)cc2)[C@@H]2C=C[C@H]1C21CC1)C(=O)Cc1ccccc1Cl` (racemic) [Example 182, (5R*)—N^5-(4-Bromo-phenyl)-(6R*)-6-{[N-(2-(2-chloro-phenyl)-acetyl)-N-methyl-amino]-methyl}-(4S*,7R*)-[4,7-ethenylene-spiro[2.4]heptane]-5-carboxamide], the results for the EC50 at human FPRL2 and on human ALX receptor were 2020 nM and 298 nM, respectively.

For `Cc1cc(C(=O)N(C)C[C@H]2[C@H](C(=O)Nc3ccc(Br)cc3)[C@@H]3C=C[C@H]2C32CC2)nn1C` (racemic) [Example 183, (5R*)—N^5-(4-Bromo-phenyl)-(6R*)-6-{[N-(1,5-dimethyl-1H-pyrazole-3-carbonyl)-N-methyl-amino]-methyl}-(4S*,7R*)-[4,7-ethenylene-spiro[2.4]heptane]-5-carboxamide], the figures for the EC50 on human FPRL2 and at human ALX receptor were 8900 nM and 303 nM, respectively.

Turning to `O=C(CC1CC1)NC[C@H]1[C@H](C(=O)Nc2ccc(Br)cc2)[C@@H]2C=C[C@H]1C21CC1` (racemic) [Example 184, (5R*)—N^5-(4-Bromo-phenyl)-(6R*)-6-[(2-cyclopropyl-acetylamino)-methyl]-(4S*,7R*)-[4,7-ethenylene-spiro[2.4]heptane]-5-carboxamide], the EC50 was more than 14500 nM at human FPRL2 and 315 nM on human ALX receptor.

In the case of `Cn1c(CCC(=O)NC[C@H]2[C@H](C(=O)Nc3ccc(Br)cc3)[C@@H]3C=C[C@H]2C32CC2)nc2ccccc21` (racemic) [Example 185, (5R*)—N^5-(4-Bromo-phenyl)-(6R*)-6-[(3-(1-methyl-1H-benzoimidazol-2-yl)-propionylamino)-methyl]-(4S*,7R*)-[4,7-ethenylene-spiro[2.4]heptane]-5-carboxamide], the values for the concentration for a half-maximal effect (EC50) on human FPRL2 and at human ALX receptor were 709 nM and 336 nM, respectively.

As to `O=C(CCc1c[nH]c2ccccc12)NC[C@H]1[C@H](C(=O)Nc2ccc(Br)cc2)[C@@H]2C=C[C@H]1C21CC1` (racemic) [Example 186, (5R*)—N^5-(4-Bromo-phenyl)-(6R*)-6-[(3-1H-indol-3-yl-propionylamino)-methyl]-(4S*,7R*)-[4,7-ethenylene-spiro[2.4]heptane]-5-carboxamide], the EC50 came out at 8960 nM on human FPRL2 and 463 nM on human ALX receptor.

Regarding `CCCC(=O)NC[C@H]1[C@H](C(=O)Nc2ccc(Br)cc2)[C@@H]2C=C[C@H]1C21CC1` (racemic) [Example 187, (5R*)—N^5-(4-Bromo-phenyl)-(6R*)-6-[(butanoylamino)-methyl]-(4S*,7R*)-[4,7-ethenylene-spiro[2.4]heptane]-5-carboxamide], the concentration for a half-maximal effect (EC50) was 4270 nM at human FPRL2 and 505 nM on human ALX receptor.

As for `O=C(CCc1ccc(F)cc1)NC[C@H]1[C@H](C(=O)Nc2ccc(Br)cc2)[C@@H]2C=C[C@H]1C21CC1` (racemic) [Example 188, (5R*)—N^5-(4-Bromo-phenyl)-(6R*)-6-[(3-(4-fluoro-phenyl)-propionylamino)-methyl]-(4S*,7R*)-[4,7-ethenylene-spiro[2.4]heptane]-5-carboxamide], the figures for the half-maximal effective concentration (EC50) at human FPRL2 and at human ALX receptor were 1920 nM and 529 nM, respectively.

Regarding `O=C(C=Cc1ccccc1)NC[C@H]1[C@H](C(=O)Nc2ccc(Br)cc2)[C@@H]2C=C[C@H]1C21CC1` (racemic) [Example 189, (5R*)—N^5-(4-Bromo-phenyl)-(6R*)-6-[(3-phenyl-acryloylamino)-methyl]-(4S*,7R*)-[4,7-ethenylene-spiro[2.4]heptane]-5-carboxamide], the results for the EC50 at human FPRL2 and on human ALX receptor were 3240 nM and 697 nM, respectively.

With `Cc1nn(C)c(Cl)c1C(=O)NC[C@H]1[C@H](C(=O)Nc2ccc(Br)cc2)[C@@H]2C=C[C@H]1C21CC1` (racemic) [Example 190, (5R*)—N^5-(4-Bromo-phenyl)-(6R*)-6-{[(5-chloro-1,3-dimethyl-1H-pyrazole-4-carbonyl)-amino]-methyl}-(4S*,7R*)-[4,7-ethenylene-spiro[2.4]heptane]-5-carboxamide], the EC50 amounted to 1700 nM at human FPRL2 and 963 nM at human ALX receptor.
